Results reported in patent US11053204B2, “Pyrimidinyloxy benzene derivatives as herbicides” (FMC Corporation, priority 2015, dated 2021).

Key:
Assay type in all cases: in vivo
[1] = system: wheat (Triticum aestivum); test: Test A postemergence, visual injury rating; conditions: 0 is no effect, 100 is complete control; for Wheat plant response rating: 0 to 100 scale, approximately 10 days
Summary of the method: (§1)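 Compounds in non-phytotoxic solvent with surfactant applied as soil spray preemergence, or postemergence to plants 2-10 cm at one- to two-leaf stage, in loam/sand. After approximately 10 days in greenhouse, injury rated visually versus untreated controls, 0 (no effect) to 100 (complete control).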

[2] = system: giant foxtail (Setaria faberii); test: Test A postemergence, visual injury rating; conditions: 0 is no effect, 100 is complete control; for Foxtail, Giant plant response rating: 0 to 100 scale, approximately 10 days
Summary of the method: as §1

[3] = system: Italian ryegrass (Lolium multiflorum); test: Test A postemergence, visual injury rating; conditions: 0 is no effect, 100 is complete control; for Ryegrass, Italian plant response rating: 0 to 100 scale, approximately 10 days
Summary of the method: as §1

[4] = system: barnyardgrass (Echinochloa crus-galli); test: Test A postemergence, visual injury rating; conditions: 0 is no effect, 100 is complete control; for Barnyardgrass plant response rating: 0 to 100 scale, approximately 10 days
Summary of the method: as §1

[5] = system: ragweed (common ragweed, Ambrosia elatior); test: Test A postemergence, visual injury rating; conditions: 0 is no effect, 100 is complete control; for Ragweed plant response rating: 0 to 100 scale, approximately 10 days
Summary of the method: as §1

[6] = system: kochia (Kochia scoparia); test: Test A postemergence, visual injury rating; conditions: 0 is no effect, 100 is complete control; for Kochia plant response rating: 0 to 100 scale, approximately 10 days
Summary of the method: as §1

[7] = system: corn (Zea mays); test: Test A postemergence, visual injury rating; conditions: 0 is no effect, 100 is complete control; for Corn plant response rating: 0 to 100 scale, approximately 10 days
Summary of the method: as §1

[8] = system: galium (catchweed bedstraw, Galium aparine); test: Test A postemergence, visual injury rating; conditions: 0 is no effect, 100 is complete control; for Galium plant response rating: 0 to 100 scale, approximately 10 days
Summary of the method: as §1

[9] = system: blackgrass (Alopecurus myosuroides); test: Test A postemergence, visual injury rating; conditions: 0 is no effect, 100 is complete control; for Blackgrass plant response rating: 0 to 100 scale, approximately 10 days
Summary of the method: as §1

[10] = system: pigweed (Amaranthus retroflexus); test: Test A postemergence, visual injury rating; conditions: 0 is no effect, 100 is complete control; for Pigweed plant response rating: 0 to 100 scale, approximately 10 days
Summary of the method: as §1

[11] = system: wheat (winter wheat, Triticum aestivum); test: Test C preemergence, plant response rating; conditions: Preemergence
Summary of the method: (§2)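 Greenhouse plants rated visually against untreated controls 13–15 d after treatment, scale 0 = no effect to 100 = complete control. Postemergence sprays went onto potted plants 2–18 cm tall (1–4 leaves); preemergence sprays onto soil freshly sown in loam–sand or silt loam, chemicals formulated in non-phytotoxic solvent with surfactant.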

[12] = system: waterhemp (common waterhemp, Amaranthus rudis); test: Test C preemergence, plant response rating; conditions: Preemergence
Summary of the method: as §2

[13] = system: morningglory (Ipomoea coccinea); test: Test C preemergence, plant response rating; conditions: Preemergence
Summary of the method: as §2

[14] = system: lambsquarters (Chenopodium album); test: Test C preemergence, plant response rating; conditions: Preemergence
Summary of the method: as §2

[15] = system: nutsedge, yellow (yellow nutsedge, Cyperus esculentus); test: Test C preemergence, plant response rating; conditions: Preemergence
Summary of the method: as §2

[16] = system: velvetleaf (Abutilon theophrasti); test: Test C preemergence, plant response rating; conditions: Preemergence
Summary of the method: as §2

[17] = system: ryegrass, Italian (Italian ryegrass, Lolium multiflorum); test: Test C postemergence, plant response rating; conditions: for Ryegrass, Italian plant response rating: scale 0 to 100 (0 no effect, 100 complete control)
Summary of the method: as §2

[18] = system: barnyardgrass (Echinochloa crus-galli); test: Test C postemergence, plant response rating; conditions: for Plant response rating, Barnyardgrass: scale 0 to 100; for Barnyardgrass plant response rating: scale 0 to 100 (0 no effect, 100 complete control)
Summary of the method: as §2

[19] = system: crabgrass, large (large crabgrass, Digitaria sanguinalis); test: Test C postemergence, plant response rating; conditions: for Crabgrass, Large plant response rating: scale 0 to 100 (0 no effect, 100 complete control)
Summary of the method: as §2

CCCCC(=O)c1c(Oc2ncc(Cl)cn2)cccc1C(F)(F)F [Compound 130]
95: Plant response rating, Lambsquarters ([14]; 125 g ai/ha, scale of 0 to 100)
75: Plant response rating, Velvetleaf ([16]; 62 g ai/ha, scale 0 to 100)
20: Ryegrass, Italian plant response rating ([3]; 125 g ai/ha) | Corn plant response rating ([7]; 125 g ai/ha) | Plant response rating, Morningglory ([13]; 62 g ai/ha, scale 0 to 100) | Barnyardgrass plant response rating ([18]; 125 g ai/ha) | Crabgrass, Large plant response rating ([19]; 125 g ai/ha)
85: Plant response rating, Velvetleaf ([16]; 125 g ai/ha, scale of 0 to 100)
10: Plant response rating, Morningglory ([13]; 125 g ai/ha, scale of 0 to 100) | Plant response rating, Velvetleaf ([16]; 31 g ai/ha, scale 0 to 100) | Plant response rating, Ryegrass, Italian ([17]; 31 g ai/ha, scale 0 to 100) | Ryegrass, Italian plant response rating ([17]; 62 g ai/ha) | Barnyardgrass plant response rating ([18]; 62 g ai/ha) | Plant response rating, Crabgrass, Large ([19]; 31 g ai/ha, scale 0 to 100) | Crabgrass, Large plant response rating ([19]; 62 g ai/ha)
50: Corn plant response rating (0 to 100 scale) ([7]; 500 g ai/ha) | Blackgrass plant response rating ([9]; 125 g ai/ha)
35: Plant response rating, Lambsquarters ([14]; 62 g ai/ha, scale 0 to 100)
30: Wheat plant response rating ([1]; 125 g ai/ha) | Wheat plant response rating (0 to 100 scale) ([1]; 500 g ai/ha) | Ragweed plant response rating ([5]; 125 g ai/ha) | Plant response rating, Lambsquarters ([14]; 31 g ai/ha, scale 0 to 100)
5: Plant response rating, Wheat ([11]; 62 g ai/ha, scale 0 to 100) | Plant response rating, Morningglory ([13]; 31 g ai/ha, scale 0 to 100) | Plant response rating, Ryegrass, Italian ([17]; 16 g ai/ha, scale of 0 to 100) | Plant response rating, Barnyardgrass ([18]; 16 g ai/ha) | Plant response rating, Barnyardgrass ([18]; 31 g ai/ha) | Plant response rating, Crabgrass, Large ([19]; 16 g ai/ha, scale of 0 to 100)
90: Foxtail, Giant plant response rating (0 to 100 scale) ([2]; 500 g ai/ha) | Ryegrass, Italian plant response rating (0 to 100 scale) ([3]; 500 g ai/ha) | Barnyardgrass plant response rating ([4]; 125 g ai/ha) | Blackgrass plant response rating (0 to 100 scale) ([9]; 500 g ai/ha)
100: Barnyardgrass plant response rating (0 to 100 scale) ([4]; 500 g ai/ha) | Kochia plant response rating ([6]; 125 g ai/ha) | Kochia plant response rating (0 to 100 scale) ([6]; 500 g ai/ha) | Galium plant response rating ([8]; 125 g ai/ha) | Galium plant response rating (0 to 100 scale) ([8]; 500 g ai/ha) | Pigweed plant response rating ([10]; 125 g ai/ha) | Pigweed plant response rating (0 to 100 scale) ([10]; 500 g ai/ha) | Plant response rating, Waterhemp ([12]; 125 g ai/ha, scale of 0 to 100) | Plant response rating, Waterhemp ([12]; 31 g ai/ha, scale 0 to 100) | Plant response rating, Waterhemp ([12]; 62 g ai/ha, scale 0 to 100)
15: Ryegrass, Italian plant response rating ([17]; 125 g ai/ha)
40: Foxtail, Giant plant response rating ([2]; 125 g ai/ha)
60: Ragweed plant response rating (0 to 100 scale) ([5]; 500 g ai/ha)
0: Plant response rating, Wheat ([11]; 125 g ai/ha, scale of 0 to 100) | Plant response rating, Wheat ([11]; 31 g ai/ha, scale 0 to 100) | Plant response rating, Nutsedge, Yellow ([15]; 125 g ai/ha, scale of 0 to 100) | Plant response rating, Nutsedge, Yellow ([15]; 31 g ai/ha, scale 0 to 100) | Plant response rating, Nutsedge, Yellow ([15]; 62 g ai/ha, scale 0 to 100)

O=C(CCCCC(F)(F)F)c1c(Br)cccc1Oc1ncc(Cl)cn1 [Compound 82]
80: Kochia plant response rating ([6]; 31 g ai/ha)
20: Corn plant response rating ([7]; 31 g ai/ha) | Plant response rating, Lambsquarters ([14]; 31 g ai/ha, scale 0 to 100) | Plant response rating, Lambsquarters ([14]; 62 g ai/ha, scale 0 to 100) | Ryegrass, Italian plant response rating ([17]; 62 g ai/ha) | Crabgrass, Large plant response rating ([19]; 125 g ai/ha)
25: Ryegrass, Italian plant response rating ([17]; 125 g ai/ha)
50: Plant response rating, Waterhemp ([12]; 31 g ai/ha, scale 0 to 100)
60: Ryegrass, Italian plant response rating ([3]; 125 g ai/ha) | Barnyardgrass plant response rating ([18]; 125 g ai/ha)
100: Foxtail, Giant plant response rating (0 to 100 scale) ([2]; 125 g ai/ha) | Barnyardgrass plant response rating (0 to 100 scale) ([4]; 125 g ai/ha) | Kochia plant response rating ([6]; 125 g ai/ha) | Galium plant response rating (0 to 100 scale) ([8]; 125 g ai/ha) | Pigweed plant response rating ([10]; 31 g ai/ha) | Pigweed plant response rating ([10]; 125 g ai/ha) | Plant response rating, Waterhemp ([12]; 125 g ai/ha, scale of 0 to 100) | Plant response rating, Waterhemp ([12]; 62 g ai/ha, scale 0 to 100)
70: Plant response rating, Lambsquarters ([14]; 125 g ai/ha, scale of 0 to 100)
10: Wheat plant response rating ([1]; 31 g ai/ha) | Plant response rating, Morningglory ([13]; 125 g ai/ha, scale of 0 to 100) | Plant response rating, Velvetleaf ([16]; 125 g ai/ha, scale of 0 to 100) | Plant response rating, Barnyardgrass ([18]; 16 g ai/ha) | Plant response rating, Barnyardgrass ([18]; 31 g ai/ha) | Barnyardgrass plant response rating ([18]; 62 g ai/ha) | Plant response rating, Crabgrass, Large ([19]; 16 g ai/ha, scale of 0 to 100)
30: Wheat plant response rating ([1]; 125 g ai/ha) | Foxtail, Giant plant response rating ([2]; 31 g ai/ha) | Barnyardgrass plant response rating ([4]; 31 g ai/ha) | Corn plant response rating (0 to 100 scale) ([7]; 125 g ai/ha) | Plant response rating, Crabgrass, Large ([19]; 31 g ai/ha, scale 0 to 100) | Crabgrass, Large plant response rating ([19]; 62 g ai/ha)
90: Galium plant response rating ([8]; 31 g ai/ha)
0: Plant response rating, Wheat ([11]; 125 g ai/ha, scale of 0 to 100) | Plant response rating, Wheat ([11]; 31 g ai/ha, scale 0 to 100) | Plant response rating, Wheat ([11]; 62 g ai/ha, scale 0 to 100) | Plant response rating, Morningglory ([13]; 31 g ai/ha, scale 0 to 100) | Plant response rating, Morningglory ([13]; 62 g ai/ha, scale 0 to 100) | Plant response rating, Nutsedge, Yellow ([15]; 125 g ai/ha, scale of 0 to 100) | Plant response rating, Nutsedge, Yellow ([15]; 31 g ai/ha, scale 0 to 100) | Plant response rating, Nutsedge, Yellow ([15]; 62 g ai/ha, scale 0 to 100) | Plant response rating, Velvetleaf ([16]; 31 g ai/ha, scale 0 to 100) | Plant response rating, Velvetleaf ([16]; 62 g ai/ha, scale 0 to 100)
15: Plant response rating, Ryegrass, Italian ([17]; 31 g ai/ha, scale 0 to 100)
40: Ryegrass, Italian plant response rating ([3]; 31 g ai/ha) | Ragweed plant response rating ([5]; 31 g ai/ha) | Ragweed plant response rating ([5]; 125 g ai/ha) | Blackgrass plant response rating ([9]; 31 g ai/ha) | Blackgrass plant response rating (0 to 100 scale) ([9]; 125 g ai/ha)
5: Plant response rating, Ryegrass, Italian ([17]; 16 g ai/ha, scale of 0 to 100)
